pIC50: −log10 of the molar value. Like-named read-outs stand apart in the source and are kept apart here.
Experiments:
HDAC2 [1] = biological target: T1, HDAC2 (Homo sapiens (Human), UniProt Q92769); experiment: Caliper HDAC enzymatic endpoint assay, HDAC2; format: biochemical
FGF21 = FGF21 mRNA expression in HepG2 cells; format: cell-based, human
Description: Compounds of the invention were evaluated for their ability to upregulate FgF21 mRNA expression in HepG2 cells. FgF21 (Fibroblast growth factor 21) is a potent insulin sensitizer and stimulatory signal for fat oxidation. (Li, H. et al. Diabetes, 61, 797, 2012; […]., The American Journal of Clinical Nutrition, 91, […], 2010). The assay protocol was as follows. HepG2 cells were cultured in DMEM and 10% FBS. […] We treated cells with the indicated compounds for two hours, and lysed and extracted mRNA using the Rneasy kit (Qiagen). […] Quantitative PCR was performed using Taqman probes specific for human FGF21 and human actin.

dopaminergic signaling = experiment: Amphetamine-induced hyperactivity (AIH); format: in vivo; conditions: mice, 10 mg/kg once daily, data 18-24 h after the 7th dose
Description: Compounds of the invention were evaluated for their ability to influence dopaminerigic signaling according to the following procedure. Mice were dosed once daily with 10 mg/kg of compound 1. Data collected 18-24 h after the 7th dose. Amphetamine-induced hyperactivity (AIH) was examined in eight identical open-field chambers (16.5″×16″×12″; AccuScan Instruments, Columbus, Ohio). Activity was detected by infrared beam breaks and recorded automatically by VersaMax software (AccuScan). Daily sessions were automatically binned in 5 minute intervals (VersaDat; AccuSacn) for statistical analysis. AIH was run over three consecutive days as follows:
Day 1: Habituation: Mice were placed into the open-field for 20 minutes and then removed for a saline injection. Mice were placed back into the open-field for an additional 30 minutes, at which point the mice were returned to their home cage.
Day 2: Baseline Motor Activity: This phase was run identically to Day 1, with the exception that the second day lasted for one hour (20 minutes pre-injection; 40 minutes post-injection).
Day 3: Amphetamine Challenge: Mice were placed in the open-field. After 20 minutes, mice were removed and challenged with amphetamine, and placed back in the open-field for 80 minutes.
**Note: All HDAC inhibitor treatments occurred 18-25 hours prior to behavioral testing. […]

HDAC2 [2] = biological target: T1, HDAC2; experiment: Tm shift; format: binding
HDAC4 = HDAC4 (Homo sapiens (Human), UniProt P56524); experiment: Caliper HDAC enzymatic endpoint assay, HDAC4; format: biochemical; conditions: Table 2C; read-out: HDAC4 IC50 after 0 hr preincubation
INS-1E cells = experiment: Palmitate and/or glucose-induced beta-cell apoptosis, caspase-3/7 activation; format: cell-based, rat; conditions: 0.5 mM palmitate and/or 25 mM glucose, 48 hours
Description: Compounds of the invention were evaluated for their ability to suppress cytokine-induced beta-cell apoptosis and palmitate and/or glucose-induced beta-cell apoptosis by inhibition of HDAC3. Assay protocols were as follows: Cell culture and reagents. […] Recombinant IL-1β, IFN-γ, and TNF-α were purchased from R&D Systems. Palmitate, D-glucose and fatty acids-free low endotoxin BSA were purchased from Sigma. Palmitate was solubilized in 90% ethanol, heated to 60° C. and used 1:100 dilution in media. Caspase-Glo 3/7 was from Promega and 3-(4,5-dimethylthiazol-2-yl)-2,5-diphenyltetrazolium bromide (MTT) was from Calbiochem. Antibodies for HDAC1, HDAC2, HDAC3, pJNK, JNK cleaved caspase-9 and secondary horseradish-peroxidase conjugated goat anti-mouse and anti-rabbit antibodies were from Cell Signaling. Antibody for beta-actin was from Sigma and antibody against CHOP (GADD153) from Abcam. HDAC inhibitors were purchased from Selleck Chemicals or synthesized in-house. Primers were from Integrated DNA Technologies, High Capacity cDNA RT kit and SYBR green master mix were purchased from Applied Biosystems. […] Luminescence was measured after a two-hour incubation using an Envision plate reader (PerkinElmer). […] Apoptosis was measured by caspase-3/7 activation using a commercially available kit. […]

HDAC6 = HDAC6 (Homo sapiens (Human), UniProt Q9UBN7); experiment: Caliper HDAC enzymatic endpoint assay, HDAC6; format: biochemical; conditions: Table 2C; read-out: HDAC6 IC50 after 0 hr preincubation
[3] = Fear conditioning assay in normal animals; format: in vivo; conditions: wild type normal mouse, single dose
Text: In one aspect, the invention provides methods and compositions for promoting cognitive function and enhancing learning and memory formation in both normal subjects as well as those suffering from memory loss and cognitive function disorders/impairments. […] A normal subject, as used herein, is a subject that has not been diagnosed with a disorder associated with impaired cognitive function. “Cognitive function” refers to mental processes of a subject relating to information gathering and/or processing; the understanding, reasoning, and/or application of information and/or ideas; the abstraction or specification of ideas and/or information; acts of creativity, problem-solving, and possibly intuition; and mental processes such as learning, perception, and/or awareness of ideas and/or information. The mental processes are distinct from those of beliefs, desires, and the like.

[4] = test system: HDACs 1, 2, 3, 4, 5, 6, 7, 8, and 9; experiment: HDAC selectivity panel (Caliper), isoform selectivity; conditions: from IC50 values
HDAC3 = HDAC3 (Homo sapiens (Human), UniProt O15379); experiment: Caliper HDAC enzymatic endpoint assay, HDAC3; format: biochemical
Sequence of HDAC3 (O15379 whole entry): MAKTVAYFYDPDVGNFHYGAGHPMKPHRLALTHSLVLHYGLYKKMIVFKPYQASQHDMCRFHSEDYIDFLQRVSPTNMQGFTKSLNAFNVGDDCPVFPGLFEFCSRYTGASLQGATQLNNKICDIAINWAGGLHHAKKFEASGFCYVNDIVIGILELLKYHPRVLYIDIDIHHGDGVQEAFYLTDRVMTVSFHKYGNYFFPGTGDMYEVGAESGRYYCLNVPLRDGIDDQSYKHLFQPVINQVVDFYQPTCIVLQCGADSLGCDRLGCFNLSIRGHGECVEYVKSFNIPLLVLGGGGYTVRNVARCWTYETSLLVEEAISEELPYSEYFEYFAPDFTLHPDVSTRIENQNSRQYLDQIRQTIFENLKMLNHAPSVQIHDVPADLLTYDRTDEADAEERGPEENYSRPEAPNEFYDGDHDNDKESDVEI
Sequence of HDAC3 (Q9Y618 395-489 partner): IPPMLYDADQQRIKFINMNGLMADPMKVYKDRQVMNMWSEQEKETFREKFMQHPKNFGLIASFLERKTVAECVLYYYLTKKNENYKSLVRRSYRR

T1 sequence (Q92769 whole entry): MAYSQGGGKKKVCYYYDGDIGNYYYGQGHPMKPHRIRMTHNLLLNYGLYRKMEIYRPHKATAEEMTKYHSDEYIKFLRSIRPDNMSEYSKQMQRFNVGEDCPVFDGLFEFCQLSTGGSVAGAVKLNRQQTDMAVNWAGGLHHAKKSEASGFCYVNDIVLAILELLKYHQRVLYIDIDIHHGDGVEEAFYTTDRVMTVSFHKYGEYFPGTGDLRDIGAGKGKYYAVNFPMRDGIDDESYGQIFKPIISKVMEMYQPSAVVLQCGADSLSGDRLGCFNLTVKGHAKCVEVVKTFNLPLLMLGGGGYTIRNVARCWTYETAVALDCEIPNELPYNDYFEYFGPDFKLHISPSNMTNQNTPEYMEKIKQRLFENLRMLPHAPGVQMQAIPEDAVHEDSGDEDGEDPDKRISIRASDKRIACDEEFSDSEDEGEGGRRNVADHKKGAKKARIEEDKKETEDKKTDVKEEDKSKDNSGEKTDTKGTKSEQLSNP
Sequence of HDAC4 (P56524 whole entry): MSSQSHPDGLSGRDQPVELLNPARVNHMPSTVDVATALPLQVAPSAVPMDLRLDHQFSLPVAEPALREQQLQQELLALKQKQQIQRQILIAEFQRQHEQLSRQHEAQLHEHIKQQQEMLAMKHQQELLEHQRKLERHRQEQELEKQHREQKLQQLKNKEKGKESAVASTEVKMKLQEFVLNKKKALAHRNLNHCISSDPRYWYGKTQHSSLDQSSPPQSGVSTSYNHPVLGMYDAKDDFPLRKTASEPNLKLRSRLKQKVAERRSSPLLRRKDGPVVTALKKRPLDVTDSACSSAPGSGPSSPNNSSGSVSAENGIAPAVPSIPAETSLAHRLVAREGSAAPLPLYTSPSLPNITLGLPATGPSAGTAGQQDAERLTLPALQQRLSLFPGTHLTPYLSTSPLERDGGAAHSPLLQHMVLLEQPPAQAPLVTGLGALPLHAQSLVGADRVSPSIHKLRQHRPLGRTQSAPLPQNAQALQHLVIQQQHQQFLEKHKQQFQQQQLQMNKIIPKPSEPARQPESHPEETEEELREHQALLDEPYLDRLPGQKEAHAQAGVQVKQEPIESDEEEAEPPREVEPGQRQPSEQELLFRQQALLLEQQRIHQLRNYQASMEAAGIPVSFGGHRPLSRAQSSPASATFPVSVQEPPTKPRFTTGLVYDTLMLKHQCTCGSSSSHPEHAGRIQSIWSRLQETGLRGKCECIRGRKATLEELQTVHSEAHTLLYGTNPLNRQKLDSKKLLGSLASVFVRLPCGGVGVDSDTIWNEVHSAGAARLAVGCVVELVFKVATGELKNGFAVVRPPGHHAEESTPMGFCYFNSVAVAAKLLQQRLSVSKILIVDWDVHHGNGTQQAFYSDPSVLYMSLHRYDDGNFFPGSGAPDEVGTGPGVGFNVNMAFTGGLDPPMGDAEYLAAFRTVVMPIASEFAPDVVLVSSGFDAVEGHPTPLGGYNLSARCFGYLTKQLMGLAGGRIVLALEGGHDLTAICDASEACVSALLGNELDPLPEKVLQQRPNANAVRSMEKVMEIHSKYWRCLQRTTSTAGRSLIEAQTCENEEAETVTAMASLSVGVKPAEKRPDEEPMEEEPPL
Sequence of HDAC6 (Q9UBN7 whole entry): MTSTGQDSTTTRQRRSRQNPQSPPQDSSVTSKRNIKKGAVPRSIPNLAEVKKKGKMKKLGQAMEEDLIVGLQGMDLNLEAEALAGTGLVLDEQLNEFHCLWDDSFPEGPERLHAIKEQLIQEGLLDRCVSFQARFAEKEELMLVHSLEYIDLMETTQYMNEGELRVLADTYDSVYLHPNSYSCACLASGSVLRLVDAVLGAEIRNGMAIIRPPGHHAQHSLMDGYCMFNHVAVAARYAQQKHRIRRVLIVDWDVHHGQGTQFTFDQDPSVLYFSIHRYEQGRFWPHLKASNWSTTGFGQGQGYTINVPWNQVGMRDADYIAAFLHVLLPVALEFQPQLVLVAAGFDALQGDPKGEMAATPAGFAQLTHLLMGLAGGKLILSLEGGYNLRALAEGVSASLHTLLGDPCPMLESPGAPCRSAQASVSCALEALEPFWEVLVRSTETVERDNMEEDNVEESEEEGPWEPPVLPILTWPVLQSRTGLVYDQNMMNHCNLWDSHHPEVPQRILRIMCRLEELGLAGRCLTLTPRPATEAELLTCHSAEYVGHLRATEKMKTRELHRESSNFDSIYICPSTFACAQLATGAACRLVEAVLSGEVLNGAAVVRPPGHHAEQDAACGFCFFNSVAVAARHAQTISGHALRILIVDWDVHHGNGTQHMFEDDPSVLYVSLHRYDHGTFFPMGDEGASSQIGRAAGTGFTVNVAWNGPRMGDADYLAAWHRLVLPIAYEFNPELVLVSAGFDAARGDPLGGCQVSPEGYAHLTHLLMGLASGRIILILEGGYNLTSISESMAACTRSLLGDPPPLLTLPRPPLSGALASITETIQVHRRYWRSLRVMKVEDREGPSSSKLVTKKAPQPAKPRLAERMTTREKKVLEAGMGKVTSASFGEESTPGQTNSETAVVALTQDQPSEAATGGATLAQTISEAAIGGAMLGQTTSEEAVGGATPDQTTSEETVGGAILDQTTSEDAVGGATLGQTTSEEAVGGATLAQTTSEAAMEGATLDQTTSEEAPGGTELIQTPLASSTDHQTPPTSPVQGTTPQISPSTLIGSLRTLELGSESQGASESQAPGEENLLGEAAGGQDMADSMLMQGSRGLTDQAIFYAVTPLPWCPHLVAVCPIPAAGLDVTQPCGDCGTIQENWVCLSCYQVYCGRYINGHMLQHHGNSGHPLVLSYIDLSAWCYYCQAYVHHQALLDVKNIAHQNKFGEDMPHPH

pIC50 (HDAC2 [1]; read-out: HDAC2 IC50 3 h Prein, Table 2, 3 h preincubation): 5.85
pIC50 (HDAC2 [1]; read-out: HDAC2 IC50 3 h Preinc, Table 2A, 3 h preincubation): 5.85
pIC50 (HDAC2 [1]; read-out: HDAC2 IC50 @3 hr, 3 hr preincubation): 5.85
Tm shift (HDAC2 [2]): 2.7 °C
pIC50 (HDAC4): < 4.48
pIC50 (HDAC6): < 4.48
more potent inhibitor of HDAC3 than compounds 3 and 4 (HDAC3; IC50, 3 h preincubation): 5-10 times
pIC50 (HDAC3; read-out: HDAC3 IC50 3 h Prein, Table 2, 3 h preincubation): 7.17
pIC50 (HDAC3; read-out: HDAC3 IC50 3 h Preinc, Table 2A, 3 h preincubation): 7.17
pIC50 (HDAC3; read-out: HDAC3 IC50 @3 hr, 3 hr preincubation): 7.17
Structure (SMILES): CC(=O)Nc1ccc(C(=O)Nc2ccc(F)cc2N)cc1 [Compound 1, 4-acetamido-N-(2-amino-4-fluorophenyl)benzamide]
FGF21 expression (FGF21/actin), dose response (FGF21): dose response increases in FGF21 expression
FGF21 mRNA expression (FGF21; 20 μM, two hours): upregulates FGF21 mRNA expression
effect on amphetamine-induced hyperactivity (dopaminergic signaling): potentiates
suppression of palmitate and/or glucose-induced beta-cell apoptosis (caspase activity) (INS-1E cells): as effective at suppressing palmitate and/or glucose-induced beta-cell apoptosis as CI-994
effect in fear conditioning assay [3]: no effect was observed
HDAC isoform selectivity [4]: HDAC3 selective compound

Reference: US11377423B2, “Inhibitors of histone deacetylase” (The Broad Institute, Inc., priority 2012, dated 2022)
